According to the NIST ThermoML archive (doi:10.1016/j.jct.2010.06.008):
Numbers after ± are expanded uncertainties.

Assay: xn = mol fraction of the nth substance listed
Details: 101 kPa, Liquid; for speed of sound: Sing-around technique in a fixed-path interferometer; for mass density: Vibrating tube method

CC(C)(C)Cl [2-chloro-2-methylpropane] + CCCCCC
Details	mass density, 283.15 K [kg/m3]	mass density, 298.15 K [kg/m3]	mass density, 313.15 K [kg/m3]	speed of sound, 283.15 K [m/s]	speed of sound, 298.15 K [m/s]	speed of sound, 313.15 K [m/s]
x2 = 0	855.249 ± 0.24	837.096 ± 0.24	818.536 ± 0.24	1046.9 ± 2.3	983.25 ± 2.3	919.41 ± 2.3
x2 = 0.0495	843.636 ± 0.24	825.763 ± 0.24	807.514 ± 0.24	1049.8 ± 2.3	985.59 ± 2.3	922.06 ± 2.3
x2 = 0.0989	832.389 ± 0.24	814.802 ± 0.24	796.851 ± 0.24	1052.2 ± 2.3	987.79 ± 2.3	924.46 ± 2.3
x2 = 0.2019	809.862 ± 0.24	792.826 ± 0.24	775.465 ± 0.24	1058.6 ± 2.3	993.98 ± 2.3	930.06 ± 2.3
x2 = 0.2987	789.789 ± 0.24	773.235 ± 0.24	756.4 ± 0.25	1065.7 ± 2.3	1000.7 ± 2.3	936.45 ± 2.3
x2 = 0.4043	768.847 ± 0.24	752.8 ± 0.25	736.513 ± 0.25	1074.5 ± 2.3	1009.1 ± 2.3	944.41 ± 2.3
x2 = 0.4985	751.114 ± 0.25	735.482 ± 0.25	719.653 ± 0.25	1083.1 ± 2.3	1017.5 ± 2.3	952.34 ± 2.3
x2 = 0.6024	732.382 ± 0.25	717.205 ± 0.25	701.869 ± 0.25	1093.7 ± 2.3	1027.6 ± 2.3	962.01 ± 2.3
x2 = 0.7017	715.376 ± 0.25	700.606 ± 0.25	685.731 ± 0.25	1104.7 ± 2.3	1038.2 ± 2.3	972.24 ± 2.3
x2 = 0.7996	699.305 ± 0.25	684.94 ± 0.25	670.488 ± 0.25	1116.6 ± 2.3	1049.7 ± 2.3	983.31 ± 2.3
x2 = 0.9025	683.186 ± 0.25	669.222 ± 0.25	655.21 ± 0.26	1130.4 ± 2.3	1063 ± 2.3	996.24 ± 2.3
x2 = 0.9498	676.073 ± 0.25	662.283 ± 0.25	648.468 ± 0.26	1137.2 ± 2.3	1069.5 ± 2.3	1002.6 ± 2.3
